From ChEMBL document CHEMBL1201862, “PubChem BioAssay data set” (2004)
Activity calls are given as the source filed them.

Columns and labels:
HEK293 = assay: inhibitors of LMP1-driven NF-kB reporter, dose response, cell-based, HEK293, luciferase, cherry-pick (AID 588343); format: functional; details: Homo sapiens
[1] = ZM109 Env clade C HIV-1 fusion inhibitors, dose response, HeLa effector, CEM target cells, luciferase, cherry-pick (AID 652058); format: functional, cell-based
[2] = off-target signal loss in HeLa-CEM21 co-culture – HeLa F-luc CTL cells, cherry-picked, counter-screen for HIV-1 Env fusion inhibitor project, dose response (AID 652040); format: functional, cell-based;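 note: potency for signal decrease marking cytotoxic or nonspecific inhibition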
[3] = inhibitors of clade B AD8 Env fusion, dose response, cell-based, cherry-pick (AID 652062); format: functional;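 note: luciferase signal from cell-cell fusion driven by HIV-1 clade B AD8 Env; potency is for inhibitors of fusion seen as a drop in luminescence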
Beta-galactosidase = Beta-galactosidase (Escherichia coli, UniProt Q8VNN2); assay: PubChem AID 485352; format: functional
Chain of Beta-galactosidase (Q8VNN2 whole entry): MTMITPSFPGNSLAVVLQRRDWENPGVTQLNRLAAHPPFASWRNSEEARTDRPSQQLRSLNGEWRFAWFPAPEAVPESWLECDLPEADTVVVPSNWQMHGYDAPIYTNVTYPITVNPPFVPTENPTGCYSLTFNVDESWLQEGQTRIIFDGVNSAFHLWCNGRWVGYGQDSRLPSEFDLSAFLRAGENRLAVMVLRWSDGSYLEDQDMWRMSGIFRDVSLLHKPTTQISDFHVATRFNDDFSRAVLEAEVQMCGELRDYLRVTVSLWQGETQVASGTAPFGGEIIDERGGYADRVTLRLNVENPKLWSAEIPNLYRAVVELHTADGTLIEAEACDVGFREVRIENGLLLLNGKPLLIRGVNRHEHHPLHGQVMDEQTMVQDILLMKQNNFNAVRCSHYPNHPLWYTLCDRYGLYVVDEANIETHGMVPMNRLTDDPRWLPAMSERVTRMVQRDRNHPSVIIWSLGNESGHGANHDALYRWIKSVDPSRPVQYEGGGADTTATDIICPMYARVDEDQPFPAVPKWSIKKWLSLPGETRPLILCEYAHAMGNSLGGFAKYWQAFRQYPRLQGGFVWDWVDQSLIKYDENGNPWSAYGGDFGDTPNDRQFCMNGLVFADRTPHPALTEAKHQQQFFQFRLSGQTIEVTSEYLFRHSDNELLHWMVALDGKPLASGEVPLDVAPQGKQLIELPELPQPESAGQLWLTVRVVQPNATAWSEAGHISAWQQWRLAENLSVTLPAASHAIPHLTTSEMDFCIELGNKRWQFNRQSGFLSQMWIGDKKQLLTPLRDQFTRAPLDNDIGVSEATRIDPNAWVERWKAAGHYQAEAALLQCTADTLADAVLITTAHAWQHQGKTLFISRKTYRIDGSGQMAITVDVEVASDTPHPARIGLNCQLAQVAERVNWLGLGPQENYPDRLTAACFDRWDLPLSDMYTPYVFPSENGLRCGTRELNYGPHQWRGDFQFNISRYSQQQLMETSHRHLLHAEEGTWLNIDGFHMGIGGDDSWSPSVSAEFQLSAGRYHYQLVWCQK

[4] = target: T1, Type-1 angiotensin II receptor (Homo sapiens, UniProt P30556); assay: AT1 receptor antagonists, dose response, selectivity assay for APJ receptor antagonist project, cell-based, uHTS hits (AID 463214); format: functional;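 note: antagonist potency against angiotensin II stimulated AT1 response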
T1 sequence (P30556 whole entry): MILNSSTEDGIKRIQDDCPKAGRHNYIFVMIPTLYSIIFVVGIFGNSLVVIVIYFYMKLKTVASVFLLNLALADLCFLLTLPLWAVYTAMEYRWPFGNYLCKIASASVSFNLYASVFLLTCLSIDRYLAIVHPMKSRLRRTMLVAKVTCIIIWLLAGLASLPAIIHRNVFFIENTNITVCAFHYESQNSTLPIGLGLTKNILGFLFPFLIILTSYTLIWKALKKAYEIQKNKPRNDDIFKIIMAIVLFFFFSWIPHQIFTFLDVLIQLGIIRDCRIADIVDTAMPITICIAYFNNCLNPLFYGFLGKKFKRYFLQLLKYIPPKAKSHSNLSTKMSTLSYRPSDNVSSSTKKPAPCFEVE

Mu-type opioid receptor = Mu-type opioid receptor (Homo sapiens, UniProt P35372); format: functional, cell-based;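 note: U2OS cells with beta-arrestin recruitment to OPRM1 by beta-gal complementation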
Chain of Mu-type opioid receptor (P35372 whole entry): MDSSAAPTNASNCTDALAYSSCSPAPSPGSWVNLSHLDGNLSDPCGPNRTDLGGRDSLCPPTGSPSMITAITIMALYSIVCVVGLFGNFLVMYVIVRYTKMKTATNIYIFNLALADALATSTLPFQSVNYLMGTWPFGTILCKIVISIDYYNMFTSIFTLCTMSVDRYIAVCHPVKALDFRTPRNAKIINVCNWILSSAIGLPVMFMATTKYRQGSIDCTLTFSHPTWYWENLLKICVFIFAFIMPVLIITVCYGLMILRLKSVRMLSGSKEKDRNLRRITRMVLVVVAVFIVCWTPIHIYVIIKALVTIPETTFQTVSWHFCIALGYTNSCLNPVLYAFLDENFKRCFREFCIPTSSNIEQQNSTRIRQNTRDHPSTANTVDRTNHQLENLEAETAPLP

[5] = target: 5-hydroxytryptamine receptor 2A (Mus musculus, UniProt P35363); format: functional, cell-based;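 note: CHO-K1 cells with tagged receptor and beta-arrestin; agonist potency measured as compound-induced activation of the receptor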
Chain of 5-hydroxytryptamine receptor 2A (P35363 whole entry): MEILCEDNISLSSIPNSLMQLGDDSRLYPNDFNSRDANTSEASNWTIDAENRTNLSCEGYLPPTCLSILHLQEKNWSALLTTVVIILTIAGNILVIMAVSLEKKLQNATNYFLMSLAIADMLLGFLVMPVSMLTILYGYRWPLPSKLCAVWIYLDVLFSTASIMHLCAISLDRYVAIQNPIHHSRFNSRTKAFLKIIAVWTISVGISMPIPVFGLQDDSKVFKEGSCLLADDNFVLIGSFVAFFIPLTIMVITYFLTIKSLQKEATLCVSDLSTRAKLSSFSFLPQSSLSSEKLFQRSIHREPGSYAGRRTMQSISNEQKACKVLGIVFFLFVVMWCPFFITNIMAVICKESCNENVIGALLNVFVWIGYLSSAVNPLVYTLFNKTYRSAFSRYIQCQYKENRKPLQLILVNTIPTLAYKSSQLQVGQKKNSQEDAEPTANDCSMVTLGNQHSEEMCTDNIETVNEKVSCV

BJ [6] = assay: cytotoxicity toward BJ-TERT fibroblasts, dose response, cell-based, RAS-independent, luminescence (AID 1933); format: functional; details: Homo sapiens
BJ [7] = assay: cells; format: functional, cell-based; details: Homo sapiens
BJ [8] = assay: cytotoxicity toward BJ-TERT-LT-ST fibroblasts, dose response, cell-based, RAS-independent, luminescence (AID 1935); format: functional; details: Homo sapiens;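 note: BJ fibroblasts immortalized with TERT plus LT and ST oncogenes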
[9] = cytotoxicity toward DRD oncogenic fibroblasts, dose response, cell-based, non-viral oncogenic, luminescence (AID 1934); format: functional; details: Homo sapiens
[10] = Luminescence Cell-Based Dose Retest to Confirm Inhibitors of Cancer Stem Cells. [Related pubchem assays (depositor defined):AID2717, AID2721]; format: functional; details: Homo sapiens
BJ [11] = assay: cytotoxicity toward Ras-transformed BJeLR fibroblasts, dose response, cell-based, alamar blue fluorescence, cherrypicked samples (AID 2631); format: functional; details: Homo sapiens;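 note: confirmatory dose-response assay in RAS-dependent BJ fibroblasts engineered with TERT, LT and ST, with cytotoxicity read by fluorescence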
[12] = inhibitors of HIV Env-driven cell fusion, dose response, cherry-pick (AID 652057); format: functional, cell-based
Paired box protein Pax-8 = Paired box protein Pax-8 (Homo sapiens, UniProt Q06710); assay: inhibitors of PAX8-driven TPO luciferase reporter, dose response, RMG-I cells, cherry-pick (AID 687027); format: functional, cell-based;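 note: luciferase reporter driven by Pax8 target thyroperoxidase promoter measured by SteadyGlo luminescence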
Chain of Paired box protein Pax-8 (Q06710 whole entry): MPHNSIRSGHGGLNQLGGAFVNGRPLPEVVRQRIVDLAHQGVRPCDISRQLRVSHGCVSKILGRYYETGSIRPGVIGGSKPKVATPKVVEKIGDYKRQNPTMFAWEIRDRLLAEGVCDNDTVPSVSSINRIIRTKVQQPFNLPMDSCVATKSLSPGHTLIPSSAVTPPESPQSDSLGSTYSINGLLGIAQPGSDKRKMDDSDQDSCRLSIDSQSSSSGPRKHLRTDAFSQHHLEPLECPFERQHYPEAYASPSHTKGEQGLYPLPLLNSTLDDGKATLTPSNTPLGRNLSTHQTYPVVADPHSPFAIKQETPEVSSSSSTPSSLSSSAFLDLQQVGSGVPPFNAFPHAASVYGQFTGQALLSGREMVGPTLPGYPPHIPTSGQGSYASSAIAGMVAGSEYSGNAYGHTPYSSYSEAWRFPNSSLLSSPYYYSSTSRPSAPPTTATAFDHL

[13] = miR-122 activators in hepatoma reporter cells, dose response, cell-based, Huh7 psiCHECK-miR122, Renilla luciferase, cherry-picked (AID 651956); format: functional;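 note: huh7 hepatoma cells stably carrying a psiCHECK-2 miR-122 sensor plasmid; renilla luciferase signal reporting endogenous miR-122 activity after 48 h compound exposure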
[14] = target: Heat shock protein HSP 90-alpha (Homo sapiens, UniProt P07900); format: functional, organism-based
[15] = inhibitors of intracellular T. cruzi replication, confirmation, NIH3T3 host cells, beta-gal luminescence (AID 2044); format: functional, cell-based;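 note: intracellular parasites grown in NIH/3T3 mouse fibroblasts as host cells; luminescent beta-galactosidase reporter signal from transgenic T. cruzi replicating inside host cells; inhibitors lower the luminescence signal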
[16] = cytotoxicity toward NIH3T3 fibroblasts, dose response, counter-screen, cell-based, ATP luminescence, mouse fibroblasts (AID 2010); format: functional;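 note: cells exposed to compound for about 90 hours before reading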
[17] = target: T2, Replicative DNA helicase DnaB (Mycobacterium tuberculosis, UniProt P9WMR3); assay: DnaB intein splicing inhibitors, dose response, biochemical, cell-free fluorescence (AID 449749); format: functional
T2 sequence (P9WMR3 whole entry): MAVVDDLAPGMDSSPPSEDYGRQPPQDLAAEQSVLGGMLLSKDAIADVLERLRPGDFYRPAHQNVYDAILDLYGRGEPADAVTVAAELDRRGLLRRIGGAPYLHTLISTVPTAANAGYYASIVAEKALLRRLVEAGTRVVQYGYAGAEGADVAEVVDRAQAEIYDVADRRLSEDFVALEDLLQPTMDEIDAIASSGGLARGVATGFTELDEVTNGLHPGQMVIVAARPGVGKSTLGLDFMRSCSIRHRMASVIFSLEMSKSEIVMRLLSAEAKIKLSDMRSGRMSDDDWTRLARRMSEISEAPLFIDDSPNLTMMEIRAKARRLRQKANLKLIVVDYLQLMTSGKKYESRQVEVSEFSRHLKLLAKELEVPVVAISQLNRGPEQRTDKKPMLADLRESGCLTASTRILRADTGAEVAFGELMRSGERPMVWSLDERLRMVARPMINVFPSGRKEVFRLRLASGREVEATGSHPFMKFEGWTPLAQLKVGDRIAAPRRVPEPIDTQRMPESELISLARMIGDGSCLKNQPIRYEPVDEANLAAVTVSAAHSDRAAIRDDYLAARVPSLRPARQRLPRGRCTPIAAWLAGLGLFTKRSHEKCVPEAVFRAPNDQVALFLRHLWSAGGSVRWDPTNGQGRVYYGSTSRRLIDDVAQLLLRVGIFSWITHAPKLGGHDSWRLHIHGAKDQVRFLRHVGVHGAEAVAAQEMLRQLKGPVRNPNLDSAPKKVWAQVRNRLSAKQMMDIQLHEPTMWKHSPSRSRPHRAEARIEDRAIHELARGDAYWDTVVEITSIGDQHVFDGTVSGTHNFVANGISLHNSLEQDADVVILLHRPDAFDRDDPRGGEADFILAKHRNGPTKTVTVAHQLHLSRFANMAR

Vero = Vero cell cytotoxicity, cytotoxicity control for flavivirus capping enzyme inhibitors (AID 588742); format: functional; details: Chlorocebus sabaeus
Protein RecA = target: T3, Protein RecA (Mycobacterium tuberculosis, UniProt P9WHJ3); assay: Fluorescence Cell-Free Homogeneous Dose Retest to Identify Inhibitors of RecA-Intein Splicing Activity. [Related pubchem assays (depositor defined):AID2097, AID2223, AID489010, AID492950]; format: functional
T3 sequence (P9WHJ3 whole entry): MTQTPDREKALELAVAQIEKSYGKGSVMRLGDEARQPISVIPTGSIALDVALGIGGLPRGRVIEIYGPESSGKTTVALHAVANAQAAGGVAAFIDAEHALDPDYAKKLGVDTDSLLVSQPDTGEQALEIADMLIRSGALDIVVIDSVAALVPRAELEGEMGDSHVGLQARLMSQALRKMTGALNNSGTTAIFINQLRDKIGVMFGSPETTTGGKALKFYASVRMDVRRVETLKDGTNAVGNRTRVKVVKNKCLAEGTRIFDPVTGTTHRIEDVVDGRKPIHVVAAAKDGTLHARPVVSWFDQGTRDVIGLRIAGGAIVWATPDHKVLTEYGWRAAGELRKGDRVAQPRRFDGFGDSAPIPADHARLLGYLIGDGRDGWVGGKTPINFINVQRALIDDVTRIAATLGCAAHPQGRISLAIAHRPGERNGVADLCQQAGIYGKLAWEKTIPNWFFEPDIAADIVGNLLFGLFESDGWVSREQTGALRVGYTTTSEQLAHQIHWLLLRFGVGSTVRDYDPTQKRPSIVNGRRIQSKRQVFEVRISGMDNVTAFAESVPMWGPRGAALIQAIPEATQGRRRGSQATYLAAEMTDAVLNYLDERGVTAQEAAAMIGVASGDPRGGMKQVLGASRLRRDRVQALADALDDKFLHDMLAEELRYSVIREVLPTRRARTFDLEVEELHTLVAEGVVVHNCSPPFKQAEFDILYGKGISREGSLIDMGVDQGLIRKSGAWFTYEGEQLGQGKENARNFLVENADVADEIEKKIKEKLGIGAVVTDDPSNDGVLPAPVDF

Genome polyprotein = Genome polyprotein (dengue virus type 2, UniProt P29990); assay: Dengue-2 NS5 methyltransferase inhibitors, primary screen, biochemical, confirmation dose response (AID 588689); format: functional
Chain of Genome polyprotein (P29990 2492-3391 limits assumed): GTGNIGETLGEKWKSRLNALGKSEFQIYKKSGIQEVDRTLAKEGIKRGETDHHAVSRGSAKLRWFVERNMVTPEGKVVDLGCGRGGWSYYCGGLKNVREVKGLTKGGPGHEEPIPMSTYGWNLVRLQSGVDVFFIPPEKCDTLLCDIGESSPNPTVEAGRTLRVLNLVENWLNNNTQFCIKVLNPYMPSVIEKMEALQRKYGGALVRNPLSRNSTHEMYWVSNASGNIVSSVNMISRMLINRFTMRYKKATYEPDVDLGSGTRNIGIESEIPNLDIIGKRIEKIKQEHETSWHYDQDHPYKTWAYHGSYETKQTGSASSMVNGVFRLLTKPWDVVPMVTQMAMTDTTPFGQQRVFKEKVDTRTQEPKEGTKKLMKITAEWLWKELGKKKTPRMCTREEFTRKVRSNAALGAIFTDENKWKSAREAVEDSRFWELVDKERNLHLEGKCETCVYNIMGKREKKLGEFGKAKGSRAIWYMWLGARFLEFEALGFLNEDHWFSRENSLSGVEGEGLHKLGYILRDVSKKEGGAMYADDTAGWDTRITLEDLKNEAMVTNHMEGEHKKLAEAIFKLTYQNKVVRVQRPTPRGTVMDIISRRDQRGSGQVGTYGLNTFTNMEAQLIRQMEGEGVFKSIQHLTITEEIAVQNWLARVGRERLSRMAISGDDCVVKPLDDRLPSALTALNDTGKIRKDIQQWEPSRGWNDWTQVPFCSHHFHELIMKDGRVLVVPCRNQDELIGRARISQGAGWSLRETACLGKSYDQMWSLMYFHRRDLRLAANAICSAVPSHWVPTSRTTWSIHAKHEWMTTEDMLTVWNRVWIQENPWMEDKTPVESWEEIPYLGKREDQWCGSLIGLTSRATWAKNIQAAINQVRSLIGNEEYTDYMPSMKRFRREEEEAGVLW

Cytochrome P450 2C9 = Cytochrome P450 2C9 (Homo sapiens, UniProt P11712)
Chain of Cytochrome P450 2C9 (P11712 whole entry): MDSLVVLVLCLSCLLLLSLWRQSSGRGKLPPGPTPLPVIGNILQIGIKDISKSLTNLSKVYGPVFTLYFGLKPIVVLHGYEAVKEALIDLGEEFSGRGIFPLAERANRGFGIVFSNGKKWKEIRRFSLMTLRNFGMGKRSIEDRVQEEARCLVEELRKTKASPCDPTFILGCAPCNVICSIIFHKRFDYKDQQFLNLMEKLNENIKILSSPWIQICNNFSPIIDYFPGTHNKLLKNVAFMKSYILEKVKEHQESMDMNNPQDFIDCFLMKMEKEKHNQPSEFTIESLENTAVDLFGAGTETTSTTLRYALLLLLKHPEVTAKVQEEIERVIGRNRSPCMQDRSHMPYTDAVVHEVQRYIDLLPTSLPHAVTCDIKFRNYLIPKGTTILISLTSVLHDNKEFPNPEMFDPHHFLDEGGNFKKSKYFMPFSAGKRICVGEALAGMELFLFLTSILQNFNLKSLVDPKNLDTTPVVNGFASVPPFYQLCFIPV

[18] = target: Luciferin 4-monooxygenase (Photinus pyralis, UniProt P08659); assay: firefly luciferase enzyme inhibitors, dose response, biochemical, luminescence (AID 1891)
Chain of Luciferin 4-monooxygenase (P08659 whole entry): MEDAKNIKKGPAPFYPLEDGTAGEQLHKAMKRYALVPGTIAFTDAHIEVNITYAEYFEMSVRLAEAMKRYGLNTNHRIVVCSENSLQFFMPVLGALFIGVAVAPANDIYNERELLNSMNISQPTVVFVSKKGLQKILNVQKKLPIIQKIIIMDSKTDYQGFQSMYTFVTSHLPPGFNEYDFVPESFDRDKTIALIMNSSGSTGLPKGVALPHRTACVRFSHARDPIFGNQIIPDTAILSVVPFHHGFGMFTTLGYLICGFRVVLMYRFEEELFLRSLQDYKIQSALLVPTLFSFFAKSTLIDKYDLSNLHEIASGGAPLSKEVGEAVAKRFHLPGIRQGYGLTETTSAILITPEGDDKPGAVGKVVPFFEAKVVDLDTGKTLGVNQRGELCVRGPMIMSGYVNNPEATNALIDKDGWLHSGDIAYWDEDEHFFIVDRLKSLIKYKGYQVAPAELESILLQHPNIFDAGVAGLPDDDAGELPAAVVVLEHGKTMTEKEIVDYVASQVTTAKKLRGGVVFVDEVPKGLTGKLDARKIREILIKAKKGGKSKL

[19] = Luminescence Cell-Based Dose Confirmation HTS to Identify Inhibitors of Platelet Dense Granule Release. [Related pubchem assays: 1663 (Primary HTS), 1678 (Summary of Project)]; format: functional

Structure (SMILES): CC(=O)c1c(C)[nH]c(C(=O)Nc2ccc(C)cn2)c1C
- AC50 (HEK293): 1.7 µM (active)

Structure (SMILES): CNc1nc2c(c(=O)n(C)c(=O)n2C)n1Cc1ccccc1
- AC50 [1]: 10.2 µM (active)
- AC50 [2]: > 70 µM (inactive)
- AC50 [3]: 13.9 µM (active)

Structure (SMILES): O=C(CN1C(=O)c2ccccc2C1=O)NCC(=O)OCC(=O)c1cccc([N+](=O)[O-])c1
- EC50 (Beta-galactosidase): > 40 µM (inactive)
- IC50 [4]: 17.4 µM (active)

Structure (SMILES): CCCCN(CC)CCCNC(=O)CC1Oc2ccccc2NC1=O (stereo unspecified)
- EC50 (Mu-type opioid receptor): 92.5 µM (inactive)
- EC50 [5]: 3.3 µM (active)

Structure (SMILES): CC[C@@]1(O)C(=O)OCc2c1cc1n(c2=O)Cc2cc3c(NC(=O)CN)cccc3nc2-1
- EC50 (BJ [6]): 10.3 µM (active)
- EC50 (BJ [7]): 1.46 µM (active)
- EC50 (BJ [8]): 1.2 µM (active)
- EC50 [9]: 2.4 µM (active)
- AC50 [10]: 0.281 µM (active)
- EC50 (BJ [11]): 0.418 µM (active)
- AC50 [12]: 0.618 µM (active)
- AC50 [1]: < 0.26 µM (active)
- AC50 (Paired box protein Pax-8): 1.11 µM (active)
- AC50 [2]: 0.896 µM (active)
- AC50 [3]: 14.6 µM (active)

Structure (SMILES): Nc1ccc(Oc2ccc(Br)cc2)cc1
- AC50 [13]: 0.378 µM (active)

Structure (SMILES): COc1cc(/C=C/c2ccc3cccc(OC)c3n2)c(OC(C)=O)c([N+](=O)[O-])c1
- EC50 (Beta-galactosidase): 26.9 µM (active)
- IC50 [4]: 10.2 µM (active)
- AC50 [10]: 7.38 µM (active)

Structure (SMILES): O=C(c1cccs1)N1CCN(Cc2ccccc2)CC1
- EC50 (Mu-type opioid receptor): 92.4 µM (inactive)
- EC50 [5]: 1.02 µM (active)

Structure (SMILES): Cc1ccc(CSc2nc3ccsc3c(=O)n2Cc2ccccn2)cc1
- AC50 [14]: 5 µM (active)

Structure (SMILES): Cn1nc([N+](=O)[O-])c(C(C#N)c2ccccn2)c(Cl)c1=O (stereo unspecified)
- EC50 [15]: 4.82 µM (active)
- EC50 [16]: > 30 µM (not active)
- AC50 [10]: 5.48 µM (active)
- AC50 [17]: 25.8 µM (active)
- CC50 (Vero): 12 µM (active)
- EC50 (Protein RecA): 9.8 µM (active)
- IC50 (Genome polyprotein): 26.5 µM (active)

Structure (SMILES): CN(C)/C=C/C(=O)c1ccc(Oc2ccccc2)cc1
- AC50 [14]: 4.26 µM (active)

Structure (SMILES): CCC(C)(C)n1nnnc1C(C(C)C)N(Cc1ccco1)Cc1cc2cc3c(cc2nc1O)OCO3 (stereo unspecified)
- CC50 (Vero): > 40 µM (active)
- AC50 (Cytochrome P450 2C9): inconclusive

Structure (SMILES): COc1ccccc1C(=O)NC(CCSC)C(=O)N1CCN(C/C=C/c2ccccc2)CC1 (stereo unspecified)
- AC50 [12]: 4.51 µM (active)
- AC50 [1]: 2.79 µM (active)
- AC50 [2]: 10.7 µM (active)
- AC50 [3]: 12.8 µM (active)

Structure (SMILES): COc1cccc(/C=N/Nc2ncccc2[N+](=O)[O-])c1OC
- EC50 (BJ [6]): 17.6 µM (active)
- EC50 (BJ [7]): 15.6 µM (inconclusive)
- EC50 [18]: 5.27 µM (active)
- EC50 [19]: 3.32 µM (active)
- EC50 (BJ [8]): > 150 µM (not active)
- EC50 [9]: 13.5 µM (active)
- AC50 (HEK293): 1.8 µM (active)

Structure (SMILES): CCCC#Cc1ccc2c(c1)O[C@H](CN(C)C(=O)COC)[C@H](C)CN([C@@H](C)CO)S2(=O)=O
- AC50 [13]: 1.19 µM (active)

Structure (SMILES): C[C@@H]1CN([C@H](C)CO)S(=O)(=O)c2ccc(-c3ccccc3)cc2O[C@@H]1CN(C)C(=O)c1ccc2c(c1)OCO2
- AC50 [13]: 27.2 µM (active)

Structure (SMILES): Cc1ccc(S(=O)(=O)Nc2ccc3c(c2)CC(=O)N([C@H](C)CO)C[C@H](C)[C@H](CN(C)S(=O)(=O)c2ccccc2)O3)cc1
- AC50 [12]: 0.877 µM (active)
- AC50 [1]: 2.46 µM (active)
- AC50 [3]: 3.38 µM (active)

Structure (SMILES): CCCN(CCC)C1CCc2cccc(O)c2C1 (stereo unspecified)
- EC50 (Mu-type opioid receptor): 92.5 µM (inactive)
- EC50 [5]: 2.3 µM (active)

Structure (SMILES): CC(C(=O)O)c1ccc(C(=O)c2cccs2)cc1 (stereo unspecified) [SUPROFEN]
- EC50 (Mu-type opioid receptor): 92.6 µM (inactive)
- EC50 [5]: 5.34 µM (active)
